Reference: patent publication US5807832A, “Oral delivery of biologically active substances bound to vitamin B12” (Biotech Australia Pty Limited, priority 1988, dated 1998)

Key:
Format in all cases: in vivo
[1] = tested on: Mature C57B1/6J female mice; test: Stimulation of ovulation in PMSG-primed mice (corpora haemorrhagica on the ovaries)
Procedure: Mature C57B1/6J female mice were treated in the following fashion: On day 0 all mice received a subcutaneous (s.'c) superovulating dose of pregnant mare serum gonadotraphin (PMSG) to stimulate the growth of ovarian follicles. After 48 hours mice received various doses of LHRH, Lys-6-LHRH or saline. On day 3 mice were sacrificed and examined for ovulation. Ovulation was assessed by examining for the presence of corpora haemorrhagica on the ovaries using a stereoscopic microscope at […].

S. typhimurium = test: Systemic S. typhimurium infection in mice: survival and clearance; details: for Elimination of systemic S. typhimurium infection / prevention of death (in words): 1 mg total dose; for Suvivors (day 10) Number / Suvivors (day 10) Percentage: total dose 1 mg as five doses 12 h apart from day 3, mice fed 1×10^6 S. typhimurium on day 0
C57B1/6J mice [2] = test: Footpad assay for DTH (footpad swelling); details: oral 50 μg priming dose, challenge with 10 μg immunizing antigen in right foot, swelling after 24 h
Procedure: Feeding of these VB12-protein complexed was also capable of stimulating good cellular immunity (as measured by the footpad assay for DTH).
+ Footpad swelling was measured in mm using a microcaliper. All groups
received a 50 μg priming dose of antigen followed by challenge with 10
μg of the immunizing antigen in the right foot and 10 μg of
ovalbumen in the left footpad. Swelling was measured after 24 h.

C57B1/6J mice [3] = test: Serum antibody response (ELISA titre) after oral feeding of antigen; details: two feedings of antigen (50 μg) on days 1 and 14, reciprocal of antiserum dilution giving ELISA reading 0.5, day 21, mean of 15 mice ±1 SD
Procedure: Female C57B1/6J mice (18-22 g) were obtained from the Animal Resources Centre (Perth, Western Australia). All mice received conjugate preparations in 0.5 ml of 0.1M carbonate/bicarbonate buffer pH9.5 using a specially prepared feeding needle. Mice were fed on days 0 and 14. On day 21 the mice were bled from the orbital plexus. Antibody titres of serum were determined by ELISA using alkaline phosphatase conjugated anti-mouse serum.
The possible potential for VB12 deliver protein molecules, covalently linked to it, from the intestine to the circulation was investigated. The immune response generated to this complex was compared to that generated by the protein fed alone or together with VB12, or to the protein injected intramuscularly.
* The reciprocal of the antiserum dilution that gave an ELISA reading of
0.5 afer 45min. at 37° C. on day 21 after initial feeding. Each
value represents the mean of 15 mice ±1 standard deviation. Mice
received two feedings of antigen (50 μg) on days 1 and 14. On day 21
mice were bled from the retro orbital plaxus and the antibody titres
measured by ELISA as described previously (RussellJones et al., 1984).
Each protein molecule was substituted with an average of 5 VB12 groups.

Substance	Number of mice ovulating ([1]; Table 2, PMSG 4 IU day 0, 50 μg iv day 2)	Number of mice ovulating ([1]; Table 2, PMSG 8 IU day 0, 50 μg iv day 2)	Number of mice ovulating ([1]; Table 3, PMSG 8 IU day 0, 50 μg/os day 2)	Number of mice ovulating ([1]; Table 4, PMSG 8 IU day 0, 6 μg/os day 2)	Number of mice ovulating ([1]; Table 4, PMSG 8 IU day 0, 12 μg/os day 2)	Number of mice ovulating ([1]; Table 4, PMSG 8 IU day 0, 25 μg/os day 2)	Number of mice ovulating ([1]; Table 4, PMSG 8 IU day 0, 50 μg/os day 2)	Elimination of systemic S. typhimurium infection / prevention of death (in words) (S. typhimurium; i.m. injection)	Suvivors (day 10) Number (S. typhimurium; i.m.)	Suvivors (day 10) Percentage (S. typhimurium; i.m.) [%]	Elimination of systemic S. typhimurium infection / prevention of death (in words) (S. typhimurium; oral)	Suvivors (day 10) Number (S. typhimurium; oral)	Suvivors (day 10) Percentage (S. typhimurium; oral) [%]	Footpad Response (footpad swelling) (C57B1/6J mice [2]) [mm]	Serum Antibody Response (C57B1/6J mice [3])
lutenizing hormone releasing hormone [LHRH]	1/3	1/4	1/5	0/5	0/5	1/5	1/5								
neomycin								could be saved	2	100	not able to eliminate systemic infection	0	0		
vitamin B12 [VB12]												0	0	0	< 4
